Patent US10058584B2, “Methods of improving behavioral therapies” (Emory University, priority 2010, dated 2018)

What was measured:
female voles = settings: OT administered; without mating 24 hrs or more needed; cited from earlier work
female prairie voles = assay: Partner preference test immediately after 6 hour cohabitation (experiment 1); assay type: in vivo, prairie vole; settings: intraperitoneal, tested immediately after cohabitation, FIG. 1
From the text: Social bonding in prairie voles is a complex social cognitive process, which involves the synthesis of social motivation, social information process and social learning. Bonding can be efficiently assayed in the laboratory using a partner preference paradigm (Ahern, 2009). The formation of a partner preference in female prairie voles is dependent on OT (Williams, 1994). In the absence of mating, 24 hrs of cohabitation is typically needed for the development of a partner preference. However, OT administration accelerates partner preference formation to 6 hrs or less. […] Melanotan I (MTI) and Melanotan II (MTII), synthetic α-MSH analogues, which act on melanocortin ¾ receptors, and busprione (BUS), a 5-HT1a receptor partial agonist, We administered to female prairie voles and assessed partner preference. […]
Female prairie voles were injected intraperitoneally with either Melanotan II (1.10 mg/kg; Sigma Aldrich, St. Louis, Mo.), buspirone (8, 30 mg/kg; Sigma Aldrich, St. Louis, Mo.) or a saline control in a dissolved in a volume of 0.1 ml 0.1% sterile saline. […] The pairs were cohabitated for six hours and video recorded to monitor for sexual behavior. […] The videos were analyzed afterwards for mating attempts and animals that mated were excluded from the study. […] The time the subject spent in side by side contact with no joint motion was scored using the CleverSys Behavioral Analysis System. […]

Structure (SMILES)	cohabitation period to partner preference formation (female voles)	time spent with the partner male vs. the stranger male (partner preference) (female prairie voles; high dose)	time spent with the partner male vs. the stranger male (partner preference) (female prairie voles; low dose)
CC[C@H](C)[C@@H]1NC(=O)[C@H](Cc2ccc(O)cc2)NC(=O)[C@@H](N)CSSC[C@@H](C(=O)N2CCC[C@H]2C(=O)N[C@@H](CC(C)C)C(=O)NCC(N)=O)NC(=O)[C@H](CC(N)=O)NC(=O)[C@H](CCC(N)=O)NC1=O [OT, Oxytocin]	≤ 6 h		
O=C1CC2(CCCC2)CC(=O)N1CCCCN1CCN(c2ncccn2)CC1 [BUS, buspirone]		failed to spend significantly more time with either stimulus animal	spent significantly more time with the partner male vs. the stranger male
